{
  "source": "ChEMBL document CHEMBL4804284",
  "parameters_in_all_cases": "scale not given: the % may be the effect or the level left",
  "key": {"[1]": {"target": "Casein kinase I isoform epsilon (Homo sapiens) (UniProt P49674)", "test": "Inhibition of DNA-tagged human CSNK1E assessed as percent of control at 50000 nM by qPCR analysis relative to control"}, "[2]": {"target": "Tyrosine-protein kinase ABL2 (Homo sapiens) (UniProt P42684)", "test": "Inhibition of DNA-tagged human ABL2 assessed as percent of control at 50000 nM by qPCR analysis relative to control"}, "[3]": {"target": "Serine/threonine-protein kinase ICK (Homo sapiens) (UniProt Q9UPZ9)", "sequence (Q9UPZ9 whole entry)": "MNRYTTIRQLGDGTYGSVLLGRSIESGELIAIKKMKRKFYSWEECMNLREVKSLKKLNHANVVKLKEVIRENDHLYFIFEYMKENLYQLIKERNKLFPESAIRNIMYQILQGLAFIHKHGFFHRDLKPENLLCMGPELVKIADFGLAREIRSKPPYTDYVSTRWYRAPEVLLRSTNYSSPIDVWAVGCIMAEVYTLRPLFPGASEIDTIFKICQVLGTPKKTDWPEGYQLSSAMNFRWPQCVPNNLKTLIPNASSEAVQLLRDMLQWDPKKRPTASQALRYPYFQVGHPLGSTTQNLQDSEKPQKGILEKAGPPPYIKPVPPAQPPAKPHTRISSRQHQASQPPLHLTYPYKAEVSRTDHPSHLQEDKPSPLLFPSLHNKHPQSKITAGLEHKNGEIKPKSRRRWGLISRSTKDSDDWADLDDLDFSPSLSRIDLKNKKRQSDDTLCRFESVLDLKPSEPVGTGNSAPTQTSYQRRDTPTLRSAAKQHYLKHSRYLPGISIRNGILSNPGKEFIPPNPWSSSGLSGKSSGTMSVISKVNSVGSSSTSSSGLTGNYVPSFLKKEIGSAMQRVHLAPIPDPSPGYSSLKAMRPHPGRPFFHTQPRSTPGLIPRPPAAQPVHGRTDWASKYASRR", "test": "Inhibition of DNA-tagged human ICK assessed as percent of control at 50000 nM by qPCR analysis relative to control"}, "[4]": {"target": "Receptor tyrosine-protein kinase erbB-2 (Homo sapiens) (UniProt P04626)", "test": "Inhibition of DNA-tagged human ERBB2 assessed as percent of control at 50000 nM by qPCR analysis relative to control"}, "[5]": {"target": "Serine/threonine-protein kinase 32A (Homo sapiens) (UniProt Q8WU08)", "sequence (Q8WU08 whole entry)": "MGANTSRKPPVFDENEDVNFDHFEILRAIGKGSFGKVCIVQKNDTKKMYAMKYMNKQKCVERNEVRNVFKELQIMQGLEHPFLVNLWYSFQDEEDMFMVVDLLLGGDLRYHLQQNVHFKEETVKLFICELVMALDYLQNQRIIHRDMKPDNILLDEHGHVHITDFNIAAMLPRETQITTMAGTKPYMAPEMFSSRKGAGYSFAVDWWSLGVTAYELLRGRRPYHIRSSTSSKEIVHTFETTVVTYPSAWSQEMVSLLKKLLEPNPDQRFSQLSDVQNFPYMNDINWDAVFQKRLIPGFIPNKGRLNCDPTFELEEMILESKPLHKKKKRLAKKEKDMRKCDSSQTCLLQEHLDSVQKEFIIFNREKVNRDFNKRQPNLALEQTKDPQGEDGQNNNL", "test": "Inhibition of DNA-tagged human YANK1 assessed as percent of control at 50000 nM by qPCR analysis relative to control"}, "[6]": {"target": "Membrane-associated tyrosine- and threonine-specific cdc2-inhibitory kinase (Homo sapiens) (UniProt Q99640)", "sequence (Q99640 whole entry)": "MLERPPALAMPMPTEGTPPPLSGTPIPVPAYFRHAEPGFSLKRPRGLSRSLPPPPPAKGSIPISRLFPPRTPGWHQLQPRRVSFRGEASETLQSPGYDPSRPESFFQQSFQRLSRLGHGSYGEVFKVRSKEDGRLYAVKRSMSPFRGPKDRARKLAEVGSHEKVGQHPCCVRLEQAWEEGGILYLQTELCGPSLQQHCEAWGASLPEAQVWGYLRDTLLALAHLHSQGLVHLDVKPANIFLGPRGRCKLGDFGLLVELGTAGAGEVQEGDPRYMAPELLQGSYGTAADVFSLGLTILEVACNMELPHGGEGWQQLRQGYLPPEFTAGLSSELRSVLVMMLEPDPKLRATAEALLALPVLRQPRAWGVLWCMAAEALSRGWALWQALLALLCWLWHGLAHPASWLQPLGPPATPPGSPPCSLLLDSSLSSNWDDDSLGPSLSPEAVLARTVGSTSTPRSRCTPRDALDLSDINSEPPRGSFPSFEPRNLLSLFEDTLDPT", "test": "Inhibition of DNA-tagged human PKMYT1 assessed as percent of control at 50000 nM by qPCR analysis relative to control"}, "[7]": {"target": "Cyclin-dependent kinase-like 3 (Homo sapiens) (UniProt Q8IVW4)", "test": "Inhibition of DNA-tagged human CDKL3 assessed as percent of control at 50000 nM by qPCR analysis relative to control"}, "[8]": {"target": "Citron Rho-interacting kinase (Homo sapiens) (UniProt O14578)", "test": "Inhibition of DNA-tagged human CIT assessed as percent of control at 50000 nM by qPCR analysis relative to control"}, "[9]": {"target": "Platelet-derived growth factor receptor beta (Homo sapiens) (UniProt P09619)", "test": "Inhibition of DNA-tagged human PDGFRB assessed as percent of control at 50000 nM by qPCR analysis relative to control"}, "[10]": {"system": "Tyrosine-protein kinase ABL1 (Homo sapiens), P00519 [T315I]", "test": "Inhibition of DNA-tagged non-phosphorylated human ABL1 T315I mutant assessed as percent of control at 50000 nM by qPCR analysis relative to control"}, "[11]": {"target": "Ribosomal protein S6 kinase alpha-1 (Homo sapiens) (UniProt Q15418)", "test": "Inhibition of DNA-tagged human N-terminal RSK1 kinase domain 1 assessed as percent of control at 50000 nM by qPCR analysis relative to control"}, "[12]": {"system": "Receptor-type tyrosine-protein kinase FLT3 (Homo sapiens), P36888 [D835Y]", "test": "Inhibition of DNA-tagged human FLT3 D835Y mutant assessed as percent of control at 50000 nM by qPCR analysis relative to control"}, "[13]": {"target": "Ephrin type-B receptor 1 (Homo sapiens) (UniProt P54762)", "test": "Inhibition of DNA-tagged human EPHB1 assessed as percent of control at 50000 nM by qPCR analysis relative to control"}, "[14]": {"target": "Phosphatidylinositol 4,5-bisphosphate 3-kinase catalytic subunit delta isoform (Homo sapiens) (UniProt O00329)", "sequence (O00329 whole entry, canonical isoform)": "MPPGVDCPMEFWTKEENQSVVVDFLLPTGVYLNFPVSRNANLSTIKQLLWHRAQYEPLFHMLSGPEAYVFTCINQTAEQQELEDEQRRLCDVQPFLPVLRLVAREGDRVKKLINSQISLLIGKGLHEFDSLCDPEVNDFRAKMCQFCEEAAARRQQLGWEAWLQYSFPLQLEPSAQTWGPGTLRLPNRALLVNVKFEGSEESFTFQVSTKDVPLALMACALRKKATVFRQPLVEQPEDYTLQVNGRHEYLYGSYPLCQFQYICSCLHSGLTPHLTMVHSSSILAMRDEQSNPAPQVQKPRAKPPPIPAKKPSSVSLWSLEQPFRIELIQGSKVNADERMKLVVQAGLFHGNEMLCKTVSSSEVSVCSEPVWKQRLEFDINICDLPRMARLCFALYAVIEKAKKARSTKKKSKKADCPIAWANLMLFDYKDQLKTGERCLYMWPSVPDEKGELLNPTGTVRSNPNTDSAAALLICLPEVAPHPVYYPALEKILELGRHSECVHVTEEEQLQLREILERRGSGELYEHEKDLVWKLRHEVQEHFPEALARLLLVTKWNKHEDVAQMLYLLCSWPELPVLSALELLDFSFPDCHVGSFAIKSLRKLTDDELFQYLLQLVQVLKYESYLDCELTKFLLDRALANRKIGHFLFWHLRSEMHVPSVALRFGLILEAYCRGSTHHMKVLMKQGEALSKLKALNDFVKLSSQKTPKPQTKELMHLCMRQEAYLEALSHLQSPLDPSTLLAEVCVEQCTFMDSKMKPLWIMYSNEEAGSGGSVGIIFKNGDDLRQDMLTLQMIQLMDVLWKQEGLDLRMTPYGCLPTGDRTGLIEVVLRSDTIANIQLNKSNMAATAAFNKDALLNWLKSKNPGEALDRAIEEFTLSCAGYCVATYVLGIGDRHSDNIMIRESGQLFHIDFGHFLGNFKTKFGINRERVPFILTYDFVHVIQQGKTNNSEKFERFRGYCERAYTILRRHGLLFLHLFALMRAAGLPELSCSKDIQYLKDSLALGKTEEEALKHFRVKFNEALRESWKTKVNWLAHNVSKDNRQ", "test": "Inhibition of DNA-tagged human PIK3CD assessed as percent of control at 50000 nM by qPCR analysis relative to control"}, "[15]": {"system": "Tyrosine-protein kinase ABL1 (Homo sapiens), P00519 [Q252H]", "test": "Inhibition of DNA-tagged non-phosphorylated human ABL1 Q252H mutant assessed as percent of control at 50000 nM by qPCR analysis relative to control"}, "[16]": {"target": "Serine/threonine-protein kinase BRSK2 (Homo sapiens) (UniProt Q8IWQ3)", "test": "Inhibition of DNA-tagged human BRSK2 assessed as percent of control at 50000 nM by qPCR analysis relative to control"}, "[17]": {"target": "Non-receptor tyrosine-protein kinase TYK2 (Homo sapiens) (UniProt P29597)", "test": "Inhibition of DNA-tagged human TYK2 JH2 pseudokinase domain assessed as percent of control at 50000 nM by qPCR analysis relative to control"}, "[18]": {"target": "Serine/threonine-protein kinase PAK 3 (Homo sapiens) (UniProt O75914)", "sequence (O75914 whole entry, looked up)": "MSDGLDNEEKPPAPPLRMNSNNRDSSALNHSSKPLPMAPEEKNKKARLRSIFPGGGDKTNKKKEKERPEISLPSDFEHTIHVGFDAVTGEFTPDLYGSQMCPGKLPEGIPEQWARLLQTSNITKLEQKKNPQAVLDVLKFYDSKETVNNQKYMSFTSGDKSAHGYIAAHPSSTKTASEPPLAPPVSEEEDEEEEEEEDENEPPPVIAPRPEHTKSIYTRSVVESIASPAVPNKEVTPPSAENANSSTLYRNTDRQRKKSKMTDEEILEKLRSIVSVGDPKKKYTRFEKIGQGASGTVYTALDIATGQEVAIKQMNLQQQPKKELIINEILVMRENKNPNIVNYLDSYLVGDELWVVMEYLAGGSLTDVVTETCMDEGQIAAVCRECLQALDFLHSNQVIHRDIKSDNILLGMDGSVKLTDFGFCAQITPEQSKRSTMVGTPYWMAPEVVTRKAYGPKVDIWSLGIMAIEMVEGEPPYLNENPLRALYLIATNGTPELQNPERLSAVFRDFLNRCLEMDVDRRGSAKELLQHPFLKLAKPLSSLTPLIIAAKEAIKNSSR", "test": "Inhibition of DNA-tagged human PAK3 assessed as percent of control at 50000 nM by qPCR analysis relative to control"}, "[19]": {"target": "Serine/threonine-protein kinase/endoribonuclease IRE1 (Homo sapiens) (UniProt O75460)", "sequence (O75460 19-977 limits assumed)": "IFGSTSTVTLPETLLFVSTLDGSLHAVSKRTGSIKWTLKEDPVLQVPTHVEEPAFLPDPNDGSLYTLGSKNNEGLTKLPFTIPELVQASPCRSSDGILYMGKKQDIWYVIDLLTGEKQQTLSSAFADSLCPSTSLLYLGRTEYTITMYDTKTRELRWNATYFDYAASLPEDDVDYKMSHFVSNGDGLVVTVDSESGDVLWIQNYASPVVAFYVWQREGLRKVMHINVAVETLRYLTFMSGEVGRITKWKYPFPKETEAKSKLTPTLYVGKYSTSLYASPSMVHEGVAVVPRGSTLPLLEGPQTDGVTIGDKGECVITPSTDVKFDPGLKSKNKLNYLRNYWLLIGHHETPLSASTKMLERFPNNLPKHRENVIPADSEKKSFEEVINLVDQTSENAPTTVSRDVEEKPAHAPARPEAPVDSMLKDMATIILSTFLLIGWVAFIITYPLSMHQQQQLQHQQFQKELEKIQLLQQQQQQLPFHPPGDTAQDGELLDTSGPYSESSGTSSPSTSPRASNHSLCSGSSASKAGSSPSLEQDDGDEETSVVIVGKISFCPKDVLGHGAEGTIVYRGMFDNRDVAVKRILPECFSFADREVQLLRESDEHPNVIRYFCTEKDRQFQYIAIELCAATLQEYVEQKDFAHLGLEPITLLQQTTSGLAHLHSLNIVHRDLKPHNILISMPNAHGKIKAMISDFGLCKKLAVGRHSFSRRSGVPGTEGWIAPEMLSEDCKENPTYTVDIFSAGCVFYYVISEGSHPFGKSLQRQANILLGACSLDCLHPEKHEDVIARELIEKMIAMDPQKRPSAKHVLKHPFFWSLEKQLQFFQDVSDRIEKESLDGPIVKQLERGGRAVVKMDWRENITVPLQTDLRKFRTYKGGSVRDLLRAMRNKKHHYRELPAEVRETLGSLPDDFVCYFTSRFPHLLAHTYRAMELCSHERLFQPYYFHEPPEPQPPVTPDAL", "test": "Inhibition of DNA-tagged human ERN1 assessed as percent of control at 50000 nM by qPCR analysis relative to control"}, "[20]": {"target": "Casein kinase II subunit alpha (Homo sapiens) (UniProt P68400)", "sequence (P68400 whole entry, looked up)": "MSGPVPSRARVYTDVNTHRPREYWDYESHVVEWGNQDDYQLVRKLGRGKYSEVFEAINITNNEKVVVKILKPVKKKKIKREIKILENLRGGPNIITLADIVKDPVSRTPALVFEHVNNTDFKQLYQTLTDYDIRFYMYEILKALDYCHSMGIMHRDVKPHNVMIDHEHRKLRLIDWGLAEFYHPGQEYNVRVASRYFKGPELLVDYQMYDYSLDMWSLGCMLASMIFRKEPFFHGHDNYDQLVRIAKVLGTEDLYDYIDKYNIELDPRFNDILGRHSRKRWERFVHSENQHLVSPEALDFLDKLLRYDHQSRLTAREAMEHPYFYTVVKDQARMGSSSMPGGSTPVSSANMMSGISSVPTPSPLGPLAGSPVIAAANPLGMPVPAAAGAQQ", "test": "Inhibition of DNA-tagged human CSNK2A1 assessed as percent of control at 50000 nM by qPCR analysis relative to control"}, "[21]": {"target": "Myosin-IIIa (Homo sapiens) (UniProt Q8NEV4)", "test": "Inhibition of DNA-tagged human MYO3A assessed as percent of control at 50000 nM by qPCR analysis relative to control"}, "[22]": {"target": "Serine/threonine-protein kinase MRCK alpha (Homo sapiens) (UniProt Q5VT25)", "test": "Inhibition of DNA-tagged human MRCKA assessed as percent of control at 50000 nM by qPCR analysis relative to control"}, "[23]": {"system": "Tyrosine-protein kinase ABL1 (Homo sapiens), P00519 [M351T]", "test": "Inhibition of DNA-tagged phosphorylated human ABL1 M351T mutant assessed as percent of control at 50000 nM by qPCR analysis relative to control"}, "[24]": {"target": "Tyrosine-protein kinase Mer (Homo sapiens) (UniProt Q12866)", "test": "Inhibition of DNA-tagged human MERTK assessed as percent of control at 50000 nM by qPCR analysis relative to control"}, "[25]": {"target": "Serine/threonine-protein kinase 38 (Homo sapiens) (UniProt Q15208)", "test": "Inhibition of DNA-tagged human NDR1 assessed as percent of control at 50000 nM by qPCR analysis relative to control"}, "[26]": {"target": "Eukaryotic translation initiation factor 2-alpha kinase 1 (Homo sapiens) (UniProt Q9BQI3)", "test": "Inhibition of DNA-tagged human EIF2AK1 assessed as percent of control at 50000 nM by qPCR analysis relative to control"}, "[27]": {"target": "Tyrosine-protein kinase Fgr (Homo sapiens) (UniProt P09769)", "test": "Inhibition of DNA-tagged human FGR assessed as percent of control at 50000 nM by qPCR analysis relative to control"}, "[28]": {"target": "Tyrosine-protein kinase Lyn (Homo sapiens) (UniProt P07948)", "sequence (P07948 2-512 limits assumed)": "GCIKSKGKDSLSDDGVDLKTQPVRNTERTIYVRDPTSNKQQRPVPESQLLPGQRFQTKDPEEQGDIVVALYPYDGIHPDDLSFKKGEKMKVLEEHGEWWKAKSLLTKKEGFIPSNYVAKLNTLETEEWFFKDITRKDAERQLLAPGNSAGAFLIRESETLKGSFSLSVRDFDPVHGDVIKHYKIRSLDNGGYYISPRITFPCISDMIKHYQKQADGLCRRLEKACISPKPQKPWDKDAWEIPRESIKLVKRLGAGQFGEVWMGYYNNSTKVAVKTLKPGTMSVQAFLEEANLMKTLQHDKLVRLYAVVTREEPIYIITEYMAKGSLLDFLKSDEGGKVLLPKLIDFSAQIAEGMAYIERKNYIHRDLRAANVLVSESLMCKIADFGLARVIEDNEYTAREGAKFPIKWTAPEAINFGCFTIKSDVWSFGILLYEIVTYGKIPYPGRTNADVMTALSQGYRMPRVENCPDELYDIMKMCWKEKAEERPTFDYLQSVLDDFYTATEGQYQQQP", "test": "Inhibition of DNA-tagged human LYN assessed as percent of control at 50000 nM by qPCR analysis relative to control"}, "[29]": {"target": "Interleukin-1 receptor-associated kinase 4 (Homo sapiens) (UniProt Q9NWZ3)", "test": "Inhibition of DNA-tagged human IRAK4 assessed as percent of control at 50000 nM by qPCR analysis relative to control"}},
  "data": [
    {"smiles": "CN1C(=O)/C(=C2/C(=O)Nc3ccccc32)c2ccccc21", "values": [
      {"measurement": "Activity", "setting": "[1]", "result": 91, "unit": "%"},
      {"measurement": "Activity", "setting": "[2]", "result": 89, "unit": "%"},
      {"measurement": "Activity", "setting": "[3]", "result": 92, "unit": "%"},
      {"measurement": "Activity", "setting": "[4]", "result": 100, "unit": "%"},
      {"measurement": "Activity", "setting": "[5]", "result": 99, "unit": "%"},
      {"measurement": "Activity", "setting": "[6]", "result": 100, "unit": "%"},
      {"measurement": "Activity", "setting": "[7]", "result": 100, "unit": "%"},
      {"measurement": "Activity", "setting": "[8]", "result": 78, "unit": "%"},
      {"measurement": "Activity", "setting": "[9]", "result": 100, "unit": "%"},
      {"measurement": "Activity", "setting": "[10]", "result": 94, "unit": "%"},
      {"measurement": "Activity", "setting": "[11]", "result": 96, "unit": "%"},
      {"measurement": "Activity", "setting": "[12]", "result": 75, "unit": "%"},
      {"measurement": "Activity", "setting": "[13]", "result": 97, "unit": "%"},
      {"measurement": "Activity", "setting": "[14]", "result": 95, "unit": "%"},
      {"measurement": "Activity", "setting": "[15]", "result": 100, "unit": "%"},
      {"measurement": "Activity", "setting": "[16]", "result": 100, "unit": "%"},
      {"measurement": "Activity", "setting": "[17]", "result": 88, "unit": "%"},
      {"measurement": "Activity", "setting": "[18]", "result": 93, "unit": "%"},
      {"measurement": "Activity", "setting": "[19]", "result": 83, "unit": "%"},
      {"measurement": "Activity", "setting": "[20]", "result": 79, "unit": "%"},
      {"measurement": "Activity", "setting": "[21]", "result": 100, "unit": "%"},
      {"measurement": "Activity", "setting": "[22]", "result": 92, "unit": "%"},
      {"measurement": "Activity", "setting": "[23]", "result": 73, "unit": "%"},
      {"measurement": "Activity", "setting": "[24]", "result": 100, "unit": "%"},
      {"measurement": "Activity", "setting": "[25]", "result": 87, "unit": "%"},
      {"measurement": "Activity", "setting": "[26]", "result": 64, "unit": "%"},
      {"measurement": "Activity", "setting": "[27]", "result": 95, "unit": "%"},
      {"measurement": "Activity", "setting": "[28]", "result": 100, "unit": "%"},
      {"measurement": "Activity", "setting": "[29]", "result": 75, "unit": "%"}
    ]}
  ]
}
